# “And” between values parts separate entries of the source, which are not always exact repeats. Equal entries are not always repeated. Where two headings read alike, the source gives them in different places.
# Tests used:
# [1] = system: R3X nonsense mutation (a premature UGA C stop codon) of the PCDH15 gene; experiment: In vitro suppression and translation, pDB650-R3X reporter plasmid in rabbit reticulocyte lysate coupled transcription/translation system; type: biochemical, human; settings: for Concentration (μM) at which maximal suppression was observed, R3X / suppression level (%), maximum in vitro, R3X: Table 20; for suppression level (%), maximum in vitro, R3X: at concentration of maximal suppression; for Conc. (concentration at which maximal suppression level was observed) / Supp. level (%), maximal in-vitro mutation suppression: R3X mutation; for Supp. level (%), maximal in-vitro mutation suppression: 35-kDa product out of total protein; for Supp. level (%), maximal in-vitro mutation suppression / Trans. level (%): at Conc. of maximal suppression; for Trans. level (%): total protein relative to no compound
# Method: Initially, Compounds 1-9 were tested for their ability to suppress this nonsense mutation in vitro, using a reporter construct carrying the R3X nonsense mutation (a premature UGA C stop codon) of the PCDH15 gene. Mutations in the PCDH15 gene which encodes protocardherin 15, cause type 1 Usher syndrome (USH1), which is characterized by profound prelingual hearing loss, vestibular areflexia, and prepubertal onset of retinitis pigmentosa (RP). Four different PCDH15 USH1-causing nonsense mutations, R3X, R245X, R643X, and R929X, have been reported in humans.
# Suppression of nonsense mutations by Compounds 1-9 was tested in vitro using a reporter plasmid harboring the R3X mutation of the PCDH15 gene. To create this plasmid, the oligonucleotides 5′-[…]-3′ (SEQ ID NO: 1) and 5′-[…]-3′ (SEQ ID NO: 2) were annealed to each other and inserted into the BamHI and HindIII sites of plasmid pDB650 [6].
# The resulting reporter plasmid pDB650-R3X contained a TGA C nonsense mutation between a 25-kDa polypeptide encoding open reading frame (ORF) and a 10-kDa polypeptide encoding ORF.
# The plasmid was transcribed and translated in a rabbit reticulocyte lysate coupled transcription/translation system (Promega) in the presence of [^35S]-methionine, and the reaction products were separated by SDS-PAGE and quantified using Phosphorlmager analysis. The mutation suppression level was calculated as the relative proportion of the 35-kDa product out of total protein (the sum of 35-kDa and 25-kDa), and the translation level was calculated as the relative proportion of the total protein at each tested compound concentration out of the total protein without the presence of the tested compounds.
# The tested concentrations of paromomycin were 0, 5, 10, 20, 30 and 40 μg/ml, tested concentrations of gentamicin were 0, 5, 10, 20, and 30 μg/ml, and the tested concentrations of Compounds 1-9 were in the range of 0-160 μg/ml.
# (§1) Compound 37 was tested for its ability to suppress a nonsense mutation in-vitro, using a reporter construct carrying either R3X nonsense mutation (a premature UGA C stop codon) or R245X nonsense mutation (a premature UGA A stop codon) of the PCDH15 gene, using gentamicin, paromomycin and Compound 3 as standards and following the experimental procedures presented hereinabove.
# (§2) For the rat-PGM-β-Gal in vitro readthrough system, the pDB series of reporter plasmids harbor the following elements under SP6 promoter control: an open reading frame (ORF) derived from the 5′ end of the rat PGM gene, which encodes a 25-kDa polypeptide; another small ORF, encoding the 10-kDa alpha complementation region of β-galactosidase, and terminated by tandem, in-frame stop codons (UAA UAG); located between the two ORFs is a DNA fragment derived from PCDH15 cDNA, including the tested stop mutation or the corresponding wild-type codon, and six upstream and downstream flanking codons (except for p.R3X constructs, in which there are only two upstream PCDH15-flanking codons). The fragments were created by annealing the following couples of complementary oligonucleotides:
# (§3) The fragments were inserted into the BamHI and HindIII restriction sites of the pDB read-through construct. Reporter plasmids harboring each of the four nonsense mutations and the corresponding wt alleles were in vitro transcribed and translated using the TNT SP6 Coupled Reticulocyte lysate System (Promega) in the presence of [^35S]-methionine and increasing concentrations of aminoglycosides as described previously. […] The degree of suppression was calculated as the relative proportion of the 35-kDa product out of total reaction products (35-kDa and 25-kDa polypeptides). The results are averages of at least three independent experiments.
# [2] = system: R245X nonsense mutation (a premature UGA A stop codon) of the PCDH15 gene; experiment: In vitro suppression, pDB reporter plasmid in reticulocyte lysate; type: biochemical, human; settings: for Concentration (μM) at which maximal suppression was observed, R245X / suppression level (%), maximum in vitro, R245X: Table 20; for suppression level (%), maximum in vitro, R245X: at concentration of maximal suppression; for difference in suppression of R3X versus R245X: maximal suppression levels
# Method: as §1, §2, §3
# [3] = system: original p2Luc plasmid containing a TGA C nonsense mutation; experiment: Dual luciferase in vitro transcription/translation assay; type: biochemical; settings: for Conc. (μM) at which maximum suppression level was achieved: dual luciferase in vitro system, all constructs of Table 21; for Maximum in vitro suppression (%) UGAC: p2luc
# Excerpt: DNA fragments derived from the subsequent genes, including the tested stop mutation or the corresponding wild-type codon, and four upstream and downstream flanking codons (except for p.R3X constructs, in which there are only two upstream PCDH15-flanking codons) were cloned into p2Luc plasmid between renilla and firefly luciferase genes as described previously. The formed plasmids, as well as the original p2Luc plasmid containing a TGA C nonsense mutation, were transcribed and translated in vitro and the stop codon suppression efficiency was calculated as described previously.
# For the dual luciferase in vitro transcription/translation assay, DNA fragments derived from PCDH15, CFTR, Dystrophin and IDUA cDNAs, including the tested stop mutation or the corresponding wild-type codon, and four upstream and downstream flanking codons (except for p.R3X constructs, in which there are only two upstream PCDH15-flanking codons) were created by annealing the couples of complementary oligonucleotides presented above.
# Fragments were inserted into the SalI and SacI restriction sites of the p2Luc plasmid between renilla and firefly luciferase genes. The afforded plasmids, as well as the original p2Luc plasmid containing a TGA C nonsense mutation, were transcribed and translated using the TNT Reticulocyte Lysate Quick Coupled Transcription/Translation System (Promega™). Each transcription/translation reaction (10 μl, total volume) contained 8 μl TNT T7 Quick Master Mix, 0.2 μl methionine (1 mM), 0.8 μl DNA template (2 μg/μl), 1 μl of either water (blank) or 1 μl solution of increasing concentrations of the tested aminoglycosides in water. Luciferase activity was determined following 90 minutes incubation at 30° C. using the Dual Luciferase Reporter Assay System (Promega™). The total luminescence produced by each one of the proteins was measured separately using the FLx800 multidetection plate reader (Bio-Tek) and the stop codon suppression efficiency was calculated as described previously. The results are averages of at least three independent experiments.
# [4] = Cell toxicity assay (XTT cell proliferation); type: cell-based
# Method: After 1 day the medium was changed to medium without streptomycin and different concentrations of the tested compounds were added. After 48 hours a cell proliferation assay (XTT based colorimetric assay, Biological Industries) was performed, using the 5 hours incubation protocol, according to the manufacturer's instructions. Optical density (OD) was read using an Elisa plate reader. Cell viability was calculated as the ratio between the number of living cells in cultures grown in the presence of the tested compounds, versus the corresponding cell cultures which were grown without the tested compounds.
compound,measurement,setting,value
NCC[C@H](O)C(=O)N[C@@H]1CC(N)[C@@H](O[C@H]2OC(CO)[C@@H](O)C(O)C2N)C(O[C@@H]2O[C@H](CN)C(O)C2O)C1O (some centres unmarked) [Compound 37],"Concentration (μM) at which maximal suppression was observed, R3X",[1],153 µM
same,"suppression level (%), maximum in vitro, R3X",[1],71% and 71 ± 9%
same,"Concentration (μM) at which maximal suppression was observed, R245X",[2],153 µM
same,"suppression level (%), maximum in vitro, R245X",[2],40.5% and 40.5 ± 7.5%
same,fold better suppression of R245X than Compound 3,[2]; maximal suppression level,6.5 fold
same,fold better suppression of R245X than gentamicin,[2]; maximal suppression level,3.6 fold
same,fold better suppression of R245X than paromomycin,[2]; maximal suppression level,4.5 fold
same,difference in suppression of R3X versus R245X,[2],1.8 fold
same,Conc. (μM) at which maximum suppression level was achieved,[3],46 µM
same,Maximum in vitro suppression (%) UGAC,[3],18.4 ± 1.6%
"NC[C@@H]1O[C@H](O[C@H]2[C@@H](O)[C@H](O[C@@H]3[C@@H](O)[C@H](N)C[C@H](N)[C@H]3O[C@H]3O[C@H](CO)[C@@H](O)[C@H](O)[C@H]3N)O[C@@H]2CO)[C@H](N)[C@@H](O)[C@@H]1O [paromomycin, reference compound]",Conc. (concentration at which maximal suppression level was observed),[1]; in vitro,40 µg/mL
same,"Supp. level (%), maximal in-vitro mutation suppression",[1],49%
same,"Supp. level (%), maximal in-vitro mutation suppression",[1]; listed as Paromomycin,49 ± 6%
same,"Concentration (μM) at which maximal suppression was observed, R3X",[1],56 µM
same,"suppression level (%), maximum in vitro, R3X",[1],49 ± 6%
same,Trans. level (%),[1],about 40%
same,Trans. level (%),[1]; listed as Paromomycin,40 ± 13%
same,CC50 at 48 h,[4]; dog,1000 ± 60 µg/mL
same,CC50 at 48 h,[4]; human,770 ± 140 µg/mL
same,CC50 at 48 h,[4]; monkey,900 ± 100 µg/mL
same,"Concentration (μM) at which maximal suppression was observed, R245X",[2],42 µM
same,"suppression level (%), maximum in vitro, R245X",[2],9 ± 3%
same,difference in suppression of R3X versus R245X,[2],5.4 fold
same,Conc. (μM) at which maximum suppression level was achieved,[3],42 µM
same,Maximum in vitro suppression (%) UGAC,[3],7.8 ± 2.2%
gentamicin [reference compound],Conc. (concentration at which maximal suppression level was observed),[1]; in vitro,30 µg/mL
same,"Supp. level (%), maximal in-vitro mutation suppression",[1],49 ± 4%
same,"Concentration (μM) at which maximal suppression was observed, R3X",[1],46 µM
same,"suppression level (%), maximum in vitro, R3X",[1],50 ± 3%
same,Trans. level (%),[1],about 40%
same,Trans. level (%),[1]; listed as Gentamicin,40 ± 9%
same,"Concentration (μM) at which maximal suppression was observed, R245X",[2],61 µM
same,"suppression level (%), maximum in vitro, R245X",[2],11 ± 1.5%
same,difference in suppression of R3X versus R245X,[2],4.5 fold
same,Conc. (μM) at which maximum suppression level was achieved,[3],46 µM
same,Maximum in vitro suppression (%) UGAC,[3],17.7 ± 2.9%
NC[C@H]1O[C@@H](O[C@@H]2[C@@H](O)[C@H](N)C[C@H](N)[C@H]2O[C@H]2O[C@H](CO)[C@@H](O)[C@H](O)[C@H]2N)[C@H](O)[C@@H]1O [Compound 3],Conc. (concentration at which maximal suppression level was observed),[1]; in vitro,80 µg/mL
same,"Supp. level (%), maximal in-vitro mutation suppression",[1],21 ± 3%
same,fold higher activity compared to Compound 1,"[1]; R3X, in vitro",over 3 fold
same,fold higher suppression level compared to Compound 2,"[1]; R3X, in vitro",13 fold
same,"Concentration (μM) at which maximal suppression was observed, R3X",[1],142 µM
same,"suppression level (%), maximum in vitro, R3X",[1],21% and 21 ± 9%
same,CC50 at 48 h,"[4]; dog, MDCK cells, 48 hours, read-out: LC50 MDCK",7530 ± 1210 µg/mL
same,CC50 at 48 h,"[4]; human, HEK-293 cells, 48 hours, read-out: LC50 HEK293",4820 ± 920 µg/mL
same,CC50 at 48 h,"[4]; monkey, COS-7 cells, 48 hours, read-out: LC50 COS-7",7030 ± 1850 µg/mL
same,"Concentration (μM) at which maximal suppression was observed, R245X",[2],178 µM
same,"suppression level (%), maximum in vitro, R245X",[2],6.0 ± 0.3%
same,difference in suppression of R3X versus R245X,[2],3.5 fold
same,Conc. (μM) at which maximum suppression level was achieved,[3],107 µM
same,Maximum in vitro suppression (%) UGAC,[3],4.8 ± 0.8%

# From patent US20190060340A1, “NOVEL AMINOGLYCOSIDES AND USES THEREOF IN THE TREATMENT OF GENETIC DISORDERS” (Technion Research & Development Foundation Limited, priority 2007, published 2019)
